Assay results as given in ChEMBL document CHEMBL1201861, “Genomics of Drug Sensitity in Cancer screening data, Wellcome Trust Sanger Institute”.

What was measured:
769-P = assay: cells; format: functional, cell-based; settings: Homo sapiens
Description: SANGER: Inhibition of human 769-P cell growth in a cell viability assay.

BPH-1 = assay: cells; format: functional, cell-based; settings: Homo sapiens;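 also: cell viability assay measuring growth inhibition of human BPH-1 cells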
Description: SANGER: Inhibition of human BPH-1 cell growth in a cell viability assay.

NCI-H1437 = assay: cells; format: functional, cell-based; settings: Homo sapiens;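 also: growth inhibition of human NCI-H1437 cells, read out by a cell viability assay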
Description: SANGER: Inhibition of human NCI-H1437 cell growth in a cell viability assay.

SW1990 = assay: cells; format: functional, cell-based; settings: Homo sapiens
Description: SANGER: Inhibition of human SW1990 cell growth in a cell viability assay.

NCI-H1694 = assay: cells; format: functional, cell-based, Homo sapiens; settings: Homo sapiens, NCI-H1694;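 also: cell viability assay measuring inhibition of growth in human NCI-H1694 cells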
Description: SANGER: Inhibition of human NCI-H1694 cell growth in a cell viability assay.

P31-FUJ = assay: cells; format: functional, cell-based, Homo sapiens; settings: Homo sapiens, P31-FUJ;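 also: growth inhibition of P31-FUJ cells, read out with a viability assay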
Description: SANGER: Inhibition of human P31-FUJ cell growth in a cell viability assay.

OE19 = assay: cells; format: functional, cell-based; settings: Homo sapiens;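 also: growth inhibition of OE19 cells, measured through a cell viability read-out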
Description: SANGER: Inhibition of human OE19 cell growth in a cell viability assay.

TE-15 = assay: cells; format: functional, cell-based, Homo sapiens; settings: Homo sapiens, TE-15;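 also: cell viability readout of growth inhibition in TE-15 cells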
Description: SANGER: Inhibition of human TE-15 cell growth in a cell viability assay.

HuP-T4 = assay: cells; format: functional, cell-based; settings: Homo sapiens;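 also: cell viability assay measuring how much HuP-T4 cell growth is inhibited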
Description: SANGER: Inhibition of human HuP-T4 cell growth in a cell viability assay.

T84 = assay: cells; format: functional, cell-based; settings: Homo sapiens;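 also: growth inhibition measured with a cell viability readout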
Description: SANGER: Inhibition of human T84 cell growth in a cell viability assay.

NCI-H187 = assay: cells; format: functional, cell-based, Homo sapiens; settings: Homo sapiens, NCI-H187;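 also: growth inhibition of NCI-H187 cells, read out as cell viability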
Description: SANGER: Inhibition of human NCI-H187 cell growth in a cell viability assay.

PC-3 = assay: cells; format: functional, cell-based; settings: Homo sapiens;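 also: cell viability assay measuring growth inhibition of PC-3 cells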
Description: SANGER: Inhibition of human PC-3 cell growth in a cell viability assay.

CAL-72 = assay: cells; format: functional, cell-based; settings: Homo sapiens;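 also: cell viability assay measuring inhibition of proliferation in the CAL-72 cell line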
Description: SANGER: Inhibition of human CAL-72 cell growth in a cell viability assay.

UACC-812 = assay: cells; format: functional, cell-based; settings: Homo sapiens
Description: SANGER: Inhibition of human UACC-812 cell growth in a cell viability assay.

BHT-101 = assay: cells; format: functional, cell-based; settings: Homo sapiens
Description: SANGER: Inhibition of human BHT-101 cell growth in a cell viability assay.

NUGC-3 = assay: cells; format: functional, cell-based; settings: Homo sapiens;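 also: growth inhibition of human NUGC-3 cells, read out with a cell viability assay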
Description: SANGER: Inhibition of human NUGC-3 cell growth in a cell viability assay.

MeWo = assay: cells; format: functional, cell-based; settings: Homo sapiens;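 also: growth inhibition of MeWo cells, determined by a cell viability readout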
Description: SANGER: Inhibition of human Mewo cell growth in a cell viability assay.

BEN = assay: cells; format: functional, cell-based; settings: Homo sapiens;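 also: growth inhibition of the BEN cell line, read out with a cell viability assay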
Description: SANGER: Inhibition of human BEN cell growth in a cell viability assay.

NCI-H1882 = assay: cells; format: functional, cell-based, Homo sapiens; settings: Homo sapiens, NCI-H1882;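 also: growth inhibition of the cell line, determined with a viability assay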
Description: SANGER: Inhibition of human NCI-H1882 cell growth in a cell viability assay.

NCI-H522 = assay: cells; format: functional, cell-based; settings: Homo sapiens;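 also: cell viability assay measuring growth inhibition of human NCI-H522 cells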
Description: SANGER: Inhibition of human NCI-H522 cell growth in a cell viability assay.

HSC-2 = assay: cells; format: functional, cell-based; settings: Homo sapiens;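 also: growth inhibition of human HSC-2 cells, read out by a cell viability assay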
Description: SANGER: Inhibition of human HSC-2 cell growth in a cell viability assay.

RMG-I = assay: cells; format: functional, cell-based; settings: Homo sapiens;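 also: growth inhibition of human RMG-I cells, read out with a cell viability assay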
Description: SANGER: Inhibition of human RMG-I cell growth in a cell viability assay.

MEL-JUSO = assay: cells; format: functional, cell-based; settings: Homo sapiens;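 also: growth inhibition of human MEL-JUSO cells, read out with a cell viability assay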
Description: SANGER: Inhibition of human MEL-JUSO cell growth in a cell viability assay.

BC-3 = assay: cells; format: functional, cell-based, Homo sapiens; settings: Homo sapiens, BC-3;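 also: cell viability assay measuring growth inhibition of human BC-3 cells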
Description: SANGER: Inhibition of human BC-3 cell growth in a cell viability assay.

MDA-MB-231 = assay: cells; format: functional, cell-based; settings: Homo sapiens
Description: SANGER: Inhibition of human MDA-MB-231 cell growth in a cell viability assay.

KU-19-19 = assay: cells; format: functional, cell-based; settings: Homo sapiens
Description: SANGER: Inhibition of human KU-19-19 cell growth in a cell viability assay.

MKN-7 = assay: cells; format: functional, cell-based; settings: Homo sapiens;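 also: growth inhibition of MKN-7 cells, read out with a cell viability assay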
Description: SANGER: Inhibition of human MKN7 cell growth in a cell viability assay.

NCI-H1417 = assay: cells; format: functional, cell-based, Homo sapiens; settings: Homo sapiens, NCI-H1417;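 also: human NCI-H1417 cells, growth inhibition determined with a cell viability readout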
Description: SANGER: Inhibition of human NCI-H1417 cell growth in a cell viability assay.

ST486 = assay: SANGER: Inhibition of human ST486 cell growth in a cell viability assay.; format: functional, cell-based; settings: Homo sapiens, ST486
SNU-C1 = assay: cells; format: functional, cell-based, Homo sapiens; settings: Homo sapiens, SNU-C1;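 also: growth inhibition of SNU-C1 human cells, read out by a cell viability assay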
Description: SANGER: Inhibition of human SNU-C1 cell growth in a cell viability assay.

UMC-11 = assay: cells; format: functional, cell-based; settings: Homo sapiens;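 also: growth inhibition of UMC-11 cells, read out with a cell viability assay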
Description: SANGER: Inhibition of human UMC-11 cell growth in a cell viability assay.

YKG-1 = assay: cells; format: functional, cell-based; settings: Homo sapiens;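 also: cell growth inhibition, read out with a viability assay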
Description: SANGER: Inhibition of human YKG-1 cell growth in a cell viability assay.

GDM-1 = assay: cells; format: functional, cell-based, Homo sapiens; settings: Homo sapiens, GDM-1; read-out: IC50;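 also: cell viability readout used to measure growth inhibition of human GDM-1 cells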
Description: SANGER: Inhibition of human GDM-1 cell growth in a cell viability assay.

HCC 2998 = assay: cells; format: functional, cell-based; settings: Homo sapiens;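 also: growth inhibition of human HCC2998 cells, measured with a cell viability read-out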
Description: SANGER: Inhibition of human HCC2998 cell growth in a cell viability assay.

YT = assay: cells; format: functional, cell-based, Homo sapiens; settings: Homo sapiens, YT
Description: SANGER: Inhibition of human YT cell growth in a cell viability assay.

Huh-7 = assay: cells; format: functional, cell-based; settings: Homo sapiens;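 also: HuH-7 cell growth inhibition, read out with a cell viability assay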
Description: SANGER: Inhibition of human HuH-7 cell growth in a cell viability assay.

OPM-2 = assay: cells; format: functional, cell-based, Homo sapiens; settings: Homo sapiens, OPM-2;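 also: growth of OPM-2 cells measured with a viability assay, IC50 for suppression of proliferation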
Description: SANGER: Inhibition of human OPM-2 cell growth in a cell viability assay.

HO-1-N-1 = assay: cells; format: functional, cell-based; settings: Homo sapiens;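 also: growth inhibition of human HO-1-N-1 cells, read out with a cell viability assay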
Description: SANGER: Inhibition of human HO-1-N-1 cell growth in a cell viability assay.

RPMI-2650 = assay: cells; format: functional, cell-based; settings: Homo sapiens
Description: SANGER: Inhibition of human RPMI-2650 cell growth in a cell viability assay.

SW626 = assay: cells; format: functional, cell-based; settings: Homo sapiens;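 also: growth inhibition of SW626 cells, measured with a cell viability assay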
Description: SANGER: Inhibition of human SW626 cell growth in a cell viability assay.

SW1417 = assay: cells; format: functional, cell-based; settings: Homo sapiens;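 also: growth inhibition of human SW1417 cells, read out with a cell viability assay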
Description: SANGER: Inhibition of human SW1417 cell growth in a cell viability assay.

DBTRG-05MG = assay: cells; format: functional, cell-based; settings: Homo sapiens;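 also: cell viability assay measuring growth inhibition of human DBTRG-05MG cells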
Description: SANGER: Inhibition of human DBTRG-05MG cell growth in a cell viability assay.

NCI-H1755 = assay: cells; format: functional, cell-based; settings: Homo sapiens;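 also: cell viability readout used to measure growth inhibition of NCI-H1755 cells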
Description: SANGER: Inhibition of human NCI-H1755 cell growth in a cell viability assay.

K052 = assay: cells; format: functional, cell-based, Homo sapiens; settings: Homo sapiens, K052;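 also: Read-out from a cell viability assay, IC50 reflecting suppression of K052 cell growth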
Description: SANGER: Inhibition of human K052 cell growth in a cell viability assay.

SK-N-AS = assay: cells; format: functional, cell-based; settings: Homo sapiens;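 also: growth inhibition of human SK-N-AS cells, measured with a cell viability assay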
Description: SANGER: Inhibition of human SK-N-AS cell growth in a cell viability assay.

SK-MM-2 = assay: cells; format: functional, cell-based, Homo sapiens; settings: Homo sapiens, SK-MM-2;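 also: growth inhibition of human SK-MM-2 cells, read out with a cell viability assay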
Description: SANGER: Inhibition of human SK-MM-2 cell growth in a cell viability assay.

NCI-H2141 = assay: cells; format: functional, cell-based, Homo sapiens; settings: Homo sapiens, NCI-H2141;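 also: growth inhibition of human NCI-H2141 cells, read out with a cell viability assay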
Description: SANGER: Inhibition of human NCI-H2141 cell growth in a cell viability assay.

DMS-79 = assay: cells; format: functional, cell-based, Homo sapiens; settings: Homo sapiens, DMS-79
Description: SANGER: Inhibition of human DMS-79 cell growth in a cell viability assay.

LC4-1 = assay: cells; format: functional, cell-based, Homo sapiens; settings: Homo sapiens, LC4-1;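 also: growth inhibition of LC4-1 cells, read out with a cell viability assay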
Description: SANGER: Inhibition of human LC4-1 cell growth in a cell viability assay.

SW837 = assay: cells; format: functional, cell-based; settings: Homo sapiens;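 also: growth inhibition of SW837 cells, determined with a cell viability assay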
Description: SANGER: Inhibition of human SW837 cell growth in a cell viability assay.

TYK-nu = assay: cells; format: functional, cell-based; settings: Homo sapiens;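 also: growth inhibition of human TYK-nu cells, read out by a cell viability assay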
Description: SANGER: Inhibition of human TYK-nu cell growth in a cell viability assay.

RD = assay: cells; format: functional, cell-based; settings: Homo sapiens
Description: SANGER: Inhibition of human RD cell growth in a cell viability assay.

SW780 = assay: cells; format: functional, cell-based; settings: Homo sapiens;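 also: growth inhibition of the cells, read out with a cell viability assay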
Description: SANGER: Inhibition of human SW780 cell growth in a cell viability assay.

NALM-6 = assay: cells; format: functional, cell-based, Homo sapiens; settings: Homo sapiens, NALM-6;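 also: growth inhibition of NALM-6 cells, read out with a cell viability assay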
Description: SANGER: Inhibition of human NALM-6 cell growth in a cell viability assay.

A2780 = assay: cells; format: functional, cell-based; settings: Homo sapiens;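 also: growth inhibition of A2780 cells, read out with a cell viability assay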
Description: SANGER: Inhibition of human A2780 cell growth in a cell viability assay.

OAW-28 = assay: cells; format: functional, cell-based; settings: Homo sapiens;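 also: growth inhibition of OAW-28 cells, read out with a cell viability assay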
Description: SANGER: Inhibition of human OAW-28 cell growth in a cell viability assay.

WM-115 = assay: cells; format: functional, cell-based; settings: Homo sapiens
Description: SANGER: Inhibition of human WM-115 cell growth in a cell viability assay.

COR-L279 = assay: SANGER: Inhibition of human COR-L279 cell growth in a cell viability assay.; format: functional, cell-based; settings: Homo sapiens, COR-L279
KYSE-410 = assay: cells; format: functional, cell-based; settings: Homo sapiens;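 also: growth inhibition of KYSE-410 cells, measured through a cell viability readout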
Description: SANGER: Inhibition of human KYSE-410 cell growth in a cell viability assay.

SMILES: OC[C@H](Cc1ccccc1)Nc1nc(Oc2ccc3c(c2)CCC3)nc2c1ncn2Cc1ccc(-c2ccccc2)cc1
- IC50 (769-P): 3.64 µM
- IC50 (BPH-1): > 10.2 µM
- IC50 (NCI-H1437): 6.89 µM
- IC50 (SW1990): > 10.2 µM
- IC50 (NCI-H1694): > 10.2 µM
- IC50 (P31-FUJ): > 10.2 µM
- IC50 (OE19): > 10.2 µM
- IC50 (TE-15): > 10.2 µM
- IC50 (HuP-T4): 7.07 µM
- IC50 (T84): > 10.2 µM
- IC50 (NCI-H187): > 10.2 µM
- IC50 (PC-3): > 10.2 µM
- IC50 (CAL-72): > 10.2 µM
- IC50 (UACC-812): > 10.2 µM
- IC50 (BHT-101): > 10.2 µM
- IC50 (NUGC-3): > 10.2 µM
- IC50 (MeWo): > 10.2 µM
- IC50 (BEN): > 10.2 µM
- IC50 (NCI-H1882): > 10.2 µM
- IC50 (NCI-H522): > 10.2 µM
- IC50 (HSC-2): > 10.2 µM
- IC50 (RMG-I): > 10.2 µM
- IC50 (MEL-JUSO): 7.9 µM
- IC50 (BC-3): 6.66 µM
- IC50 (MDA-MB-231): > 10.2 µM
- IC50 (KU-19-19): > 10.2 µM
- IC50 (MKN-7): > 10.2 µM
- IC50 (NCI-H1417): > 10.2 µM
- IC50 (ST486): > 10.2 µM
- IC50 (SNU-C1): 4.22 µM
- IC50 (UMC-11): > 10.2 µM
- IC50 (YKG-1): 7.11 µM
- IC50 (GDM-1): 3.33 µM
- IC50 (HCC 2998): > 10.2 µM
- IC50 (YT): > 10.2 µM
- IC50 (Huh-7): > 10.2 µM
- IC50 (OPM-2): > 10.2 µM
- IC50 (HO-1-N-1): > 10.2 µM
- IC50 (RPMI-2650): > 10.2 µM
- IC50 (SW626): 8.3 µM
- IC50 (SW1417): > 10.2 µM
- IC50 (DBTRG-05MG): > 10.2 µM
- IC50 (NCI-H1755): > 10.2 µM
- IC50 (K052): > 10.2 µM
- IC50 (SK-N-AS): > 10.2 µM
- IC50 (SK-MM-2): > 10.2 µM
- IC50 (NCI-H2141): > 10.2 µM
- IC50 (DMS-79): > 10.2 µM
- IC50 (LC4-1): > 10.2 µM
- IC50 (SW837): > 10.2 µM
- IC50 (TYK-nu): > 10.2 µM
- IC50 (RD): > 10.2 µM
- IC50 (SW780): > 10.2 µM
- IC50 (NALM-6): 3.51 µM
- IC50 (A2780): > 10.2 µM
- IC50 (OAW-28): > 10.2 µM
- IC50 (WM-115): > 10.2 µM
- IC50 (COR-L279): > 10.2 µM
- IC50 (KYSE-410): 6.97 µM

SMILES: CCCCCCCCCCCC1=C(O)C(=O)C=C(O)C1=O [EMBELIN]
- IC50 (769-P): 8.47 µM
- IC50 (BPH-1): > 32 µM
- IC50 (NCI-H1437): 6.27 µM
- IC50 (SW1990): 6.49 µM
- IC50 (NCI-H1694): > 32 µM
- IC50 (P31-FUJ): > 32 µM
- IC50 (OE19): 29.7 µM
- IC50 (TE-15): 7.24 µM
- IC50 (HuP-T4): 7.56 µM
- IC50 (T84): 9.87 µM
- IC50 (NCI-H187): > 32 µM
- IC50 (PC-3): 14.8 µM
- IC50 (CAL-72): 10.4 µM
- IC50 (UACC-812): > 32 µM
- IC50 (BHT-101): 20 µM
- IC50 (NUGC-3): 9.18 µM
- IC50 (MeWo): 15.9 µM
- IC50 (BEN): > 32 µM
- IC50 (NCI-H1882): > 32 µM
- IC50 (NCI-H522): 17.7 µM
- IC50 (HSC-2): 7.4 µM
- IC50 (RMG-I): 9.24 µM
- IC50 (MEL-JUSO): 7.85 µM
- IC50 (BC-3): > 32 µM
- IC50 (MDA-MB-231): 21.8 µM
- IC50 (KU-19-19): > 32 µM
- IC50 (MKN-7): > 32 µM
- IC50 (NCI-H1417): > 32 µM
- IC50 (ST486): 8.3 µM
- IC50 (SNU-C1): 10.3 µM
- IC50 (UMC-11): > 32 µM
- IC50 (YKG-1): 8.88 µM
- IC50 (GDM-1): 28 µM
- IC50 (HCC 2998): 6.8 µM
- IC50 (YT): 12.8 µM
- IC50 (Huh-7): > 32 µM
- IC50 (OPM-2): > 32 µM
- IC50 (HO-1-N-1): 12.3 µM
- IC50 (RPMI-2650): 7.32 µM
- IC50 (SW626): 9.35 µM
- IC50 (SW1417): > 32 µM
- IC50 (DBTRG-05MG): 15.4 µM
- IC50 (NCI-H1755): > 32 µM
- IC50 (K052): 29 µM
- IC50 (SK-N-AS): 13.8 µM
- IC50 (SK-MM-2): > 32 µM
- IC50 (NCI-H2141): 26.8 µM
- IC50 (DMS-79): > 32 µM
- IC50 (LC4-1): > 32 µM
- IC50 (SW837): 18 µM
- IC50 (TYK-nu): 22.6 µM
- IC50 (RD): 15.3 µM
- IC50 (SW780): > 32 µM
- IC50 (NALM-6): 9.09 µM
- IC50 (A2780): 13.2 µM
- IC50 (OAW-28): 20 µM
- IC50 (WM-115): 13.8 µM
- IC50 (COR-L279): > 32 µM
- IC50 (KYSE-410): 6.38 µM

SMILES: COc1ccc(-c2cc3nccn3c(Nc3ncccc3C(N)=O)n2)cc1OC
- IC50 (769-P): 0.98 µM
- IC50 (BPH-1): 1.99 µM
- IC50 (NCI-H1437): 1.8 µM
- IC50 (SW1990): > 8 µM
- IC50 (NCI-H1694): > 8 µM
- IC50 (P31-FUJ): > 8 µM
- IC50 (OE19): > 8 µM
- IC50 (TE-15): 1.28 µM
- IC50 (HuP-T4): 7.99 µM
- IC50 (T84): 3.23 µM
- IC50 (NCI-H187): > 8 µM
- IC50 (PC-3): > 8 µM
- IC50 (CAL-72): > 8 µM
- IC50 (UACC-812): > 8 µM
- IC50 (BHT-101): > 8 µM
- IC50 (NUGC-3): > 8 µM
- IC50 (MeWo): > 8 µM
- IC50 (BEN): > 8 µM
- IC50 (NCI-H1882): > 8 µM
- IC50 (NCI-H522): > 8 µM
- IC50 (HSC-2): 4.53 µM
- IC50 (RMG-I): > 8 µM
- IC50 (MEL-JUSO): 2.74 µM
- IC50 (BC-3): 2.47 µM
- IC50 (MDA-MB-231): > 8 µM
- IC50 (KU-19-19): > 8 µM
- IC50 (MKN-7): > 8 µM
- IC50 (NCI-H1417): > 8 µM
- IC50 (ST486): 0.576 µM
- IC50 (SNU-C1): > 8 µM
- IC50 (UMC-11): > 8 µM
- IC50 (YKG-1): 2.65 µM
- IC50 (GDM-1): 0.683 µM
- IC50 (HCC 2998): 5.55 µM
- IC50 (YT): 2.34 µM
- IC50 (Huh-7): > 8 µM
- IC50 (OPM-2): 6.16 µM
- IC50 (HO-1-N-1): > 8 µM
- IC50 (RPMI-2650): 0.696 µM
- IC50 (SW626): > 8 µM
- IC50 (SW1417): > 8 µM
- IC50 (DBTRG-05MG): > 8 µM
- IC50 (NCI-H1755): > 8 µM
- IC50 (K052): > 8 µM
- IC50 (SK-N-AS): > 8 µM
- IC50 (SK-MM-2): > 8 µM
- IC50 (NCI-H2141): > 8 µM
- IC50 (DMS-79): > 8 µM
- IC50 (LC4-1): 5.98 µM
- IC50 (SW837): 3.54 µM
- IC50 (TYK-nu): > 8 µM
- IC50 (RD): > 8 µM
- IC50 (SW780): > 8 µM
- IC50 (NALM-6): 0.417 µM
- IC50 (A2780): 1.53 µM
- IC50 (OAW-28): > 8 µM
- IC50 (WM-115): > 8 µM
- IC50 (COR-L279): 4.2 µM
- IC50 (KYSE-410): 7.22 µM
